Results taken from PubChem BioAssay AID292 (DTP/NCI, 2004).
“And” between values parts separate entries of the source, which are not always exact repeats. Equal values may be shown once. Inconclusive results and toxic doses are left out.

Tested on: B6C3F1 mice, ip Sarcoma M5076, median survival T/C
Test: NCI In Vivo Anticancer Drug Screen. Data for tumor model Sarcoma M5076 (intraperitoneal) in B6C3F1 mice
Conditions: endpoint: median survival time, schedule: Q04DX004 (ip), higher = longer survival
Method in brief: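 Transplantable tumour in mice; compound-treated vs vehicle-treated groups. Read-out: survival. Value = treated/control ratio.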

[1] = dose: 12.5 mg/kg/injection, vehicle: saline with Tween-80
[2] = dose: 25.0 mg/kg/injection, vehicle: saline with Tween-80
[3] = dose: 50.0 mg/kg/injection, vehicle: saline with Tween-80
[4] = dose: 100.0 mg/kg/injection, vehicle: saline with Tween-80
[5] = dose: 200.0 mg/kg/injection, vehicle: saline with Tween-80
[6] = dose: 50.0 mg/kg/injection, vehicle: Klucel (hydroxypropylcellulose) (HPC)
[7] = dose: 100.0 mg/kg/injection, vehicle: Klucel (hydroxypropylcellulose) (HPC)
[8] = dose: 200.0 mg/kg/injection, vehicle: Klucel (hydroxypropylcellulose) (HPC)
[9] = dose: 400.0 mg/kg/injection, vehicle: Klucel (hydroxypropylcellulose) (HPC)
[10] = dose: 50.0 mg/kg/injection, vehicle: saline
[11] = dose: 75.0 mg/kg/injection, vehicle: saline with Tween-80
[12] = dose: 150.0 mg/kg/injection, vehicle: saline with Tween-80
[13] = dose: 300.0 mg/kg/injection, vehicle: saline with Tween-80
[14] = dose: 25.0 mg/kg/injection, vehicle: Klucel (hydroxypropylcellulose) (HPC)

## Cc1noc2nc(-c3ccccc3)cc(N3CCN(C)CC3)c12
dose: 25.0 mg/kg/injection, vehicle: other
  T/C: 95 % of control
dose: 50.0 mg/kg/injection, vehicle: other
  T/C: 105 % of control
dose: 100.0 mg/kg/injection, vehicle: other
  T/C: 99 % of control
dose: 200.0 mg/kg/injection, vehicle: other
  T/C: 97 % of control

## C/C=C/C=C\C=C/C(O)CC(OP(=O)(O)O)C(C)(O)/C=C/C1CC=CC(=O)O1 (centres undefined)
dose: 0.75 mg/kg/injection, vehicle: Klucel (hydroxypropylcellulose) (HPC)
  T/C: 104 % of control
dose: 1.5 mg/kg/injection, vehicle: Klucel (hydroxypropylcellulose) (HPC)
  T/C: 112 % of control
dose: 1.5 mg/kg/injection, vehicle: water
  T/C: 106 % of control
dose: 3.0 mg/kg/injection, vehicle: Klucel (hydroxypropylcellulose) (HPC)
  T/C: 111 % of control
dose: 3.0 mg/kg/injection, vehicle: water
  T/C: 108 % of control and 111 % of control
dose: 6.0 mg/kg/injection, vehicle: Klucel (hydroxypropylcellulose) (HPC)
  T/C: 112 % of control
dose: 6.0 mg/kg/injection, vehicle: water
  T/C: 108 % of control and 113 % of control
dose: 12.0 mg/kg/injection, vehicle: water
  T/C: 108 % of control
dose: 24.0 mg/kg/injection, vehicle: water
  T/C: 112 % of control

## OC1(c2cccc(Cl)c2)C2=NCCCN2c2ccccc21 (centres undefined)
dose: 6.25 mg/kg/injection, vehicle: saline with Tween-80
  T/C: 102 % of control
[1]
  T/C: 103 % of control
[2]
  T/C: 100 % of control
[3]
  T/C: 99 % of control

## COc1cc2c(c3c1/c(=N/N)c1ccccc1n3C)C=CC(C)(C)O2
[2]
  T/C: 108 % of control
[3]
  T/C: 110 % of control
[4]
  T/C: 89 % of control
[5]
  T/C: 104 % of control

## N#CC1C(=O)NC(=O)C(C#N)C1c1cccc(O)c1 (centres undefined)
[6]
  T/C: 95 % of control
[7]
  T/C: 102 % of control
[8]
  T/C: 99 % of control
[9]
  T/C: 95 % of control
dose: 800.0 mg/kg/injection, vehicle: Klucel (hydroxypropylcellulose) (HPC)
  T/C: 109 % of control

## COc1cc(C2c3cc4c(cc3[C@@H](OC3OC5CO[C@@H](C)OC5C(O)C3O)[C@H]3COC(=O)C23)OCO4)cc(OC)c1OC (some centres undefined)
dose: 25.0 mg/kg/injection, vehicle: saline
  T/C: 116 % of control
[6]
  T/C: 118 % of control
[10]
  T/C: 110 % of control
dose: 50.0 mg/kg/injection, vehicle: suspension in saline
  T/C: 103 % of control
dose: 100.0 mg/kg/injection, vehicle: saline
  T/C: 122 % of control
dose: 100.0 mg/kg/injection, vehicle: suspension in saline
  T/C: 99 % of control
[8]
  T/C: 171 % of control
dose: 200.0 mg/kg/injection, vehicle: suspension in saline
  T/C: 123 % of control
dose: 300.0 mg/kg/injection, vehicle: suspension in saline
  T/C: 168 % of control
[9]
  T/C: 233 % of control

## CC(=O)Nc1ccc(Nc2ccc(C(=C3C=CC(=[N+](C)CCC#N)C=C3)c3ccc(N(C)CCC#N)cc3)cc2)cc1
[1]
  T/C: 101 % of control
[2]
  T/C: 101 % of control
[3]
  T/C: 99 % of control
[4]
  T/C: 100 % of control
[5]
  T/C: 92 % of control

## CC(O)(CSc1ccccc1)CSc1ccccc1 (tested in a mixture with another compound)
dose: 18.75 mg/kg/injection, vehicle: saline with Tween-80
  T/C: 104 % of control
dose: 37.5 mg/kg/injection, vehicle: saline with Tween-80
  T/C: 98 % of control
[11]
  T/C: 100 % of control
[12]
  T/C: 101 % of control
[13]
  T/C: 100 % of control

## Cc1ccc2c(c1)C1(C)OC(C=CC1=O)O2 (centres undefined)
[14]
  T/C: 96 % of control
[6]
  T/C: 103 % of control

## CCC(CC)COC(=O)c1ccccc1C(=O)OCC(CC)CC
[11]
  T/C: 102 % of control
[12]
  T/C: 102 % of control
[13]
  T/C: 104 % of control
dose: 600.0 mg/kg/injection, vehicle: saline with Tween-80
  T/C: 106 % of control
dose: 1200.0 mg/kg/injection, vehicle: saline with Tween-80
  T/C: 114 % of control

## CC(C)N1C(=O)N(Cl)C2C1N(Cl)C(=O)N2Cl (centres undefined)
dose: 6.25 mg/kg/injection, vehicle: sodium bicarbonate
  T/C: 102 % of control
dose: 12.5 mg/kg/injection, vehicle: sodium bicarbonate
  T/C: 107 % of control
dose: 25.0 mg/kg/injection, vehicle: sodium bicarbonate
  T/C: 94 % of control
[10]
  T/C: 91 % of control
dose: 50.0 mg/kg/injection, vehicle: sodium bicarbonate
  T/C: 114 % of control
dose: 100.0 mg/kg/injection, vehicle: sodium bicarbonate
  T/C: 109 % of control

## COC(=O)c1c(C(=O)OC)c2c(C)nn3ccc1n23
[1]
  T/C: 96 % of control
[2]
  T/C: 97 % of control
[3]
  T/C: 96 % of control
[4]
  T/C: 104 % of control
[5]
  T/C: 93 % of control

## COc1cc(C#N)c(NC(=S)N2CCN(C(=O)c3ccco3)CC2)cc1OC
[6]
  T/C: 98 % of control
[7]
  T/C: 111 % of control
[8]
  T/C: 103 % of control
[9]
  T/C: 90 % of control

## Cc1ccc(C(=Nc2ccccc2)N=P(c2ccccc2)(c2ccccc2)c2ccccc2)cc1
[2]
  T/C: 106 % of control
[3]
  T/C: 93 % of control

## O=C(Nc1cccc2ccccc12)C1C(=O)C(=O)N(c2cccc3ccccc23)C1=O (centres undefined)
dose: 37.5 mg/kg/injection, vehicle: Klucel (hydroxypropylcellulose) (HPC)
  T/C: 105 % of control
dose: 75.0 mg/kg/injection, vehicle: Klucel (hydroxypropylcellulose) (HPC)
  T/C: 104 % of control
dose: 150.0 mg/kg/injection, vehicle: Klucel (hydroxypropylcellulose) (HPC)
  T/C: 88 % of control
dose: 300.0 mg/kg/injection, vehicle: Klucel (hydroxypropylcellulose) (HPC)
  T/C: 91 % of control

## CC1=C(/C=C/C(C)=C/C=C/C(C)=C/C=O)C(C)(C)CCC1
dose: 75.0 mg/kg/injection, vehicle: saline + alcohol
  T/C: 104 % of control
dose: 150.0 mg/kg/injection, vehicle: saline + alcohol
  T/C: 96 % of control

## CN=C(NC)c1ccc(NC(=O)/C=C\c2ccc(/C=C/C(=O)Nc3ccc(C(=NC)NC)cc3)cc2)cc1
dose: 3.12 mg/kg/injection, vehicle: Klucel (hydroxypropylcellulose) (HPC)
  T/C: 124 % of control
dose: 3.75 mg/kg/injection, vehicle: Klucel (hydroxypropylcellulose) (HPC)
  T/C: 116 % of control
dose: 6.25 mg/kg/injection, vehicle: Klucel (hydroxypropylcellulose) (HPC)
  T/C: 115 % of control
dose: 10.42 mg/kg/injection, vehicle: Klucel (hydroxypropylcellulose) (HPC)
  T/C: 164 % of control
dose: 17.37 mg/kg/injection, vehicle: Klucel (hydroxypropylcellulose) (HPC)
  T/C: 105 % of control

## CC1=CC(C)(C)N=C2SC(COc3ccccc3)=NN12
[3]
  T/C: 104 % of control
[4]
  T/C: 96 % of control
[5]
  T/C: 93 % of control
dose: 400.0 mg/kg/injection, vehicle: saline with Tween-80
  T/C: 99 % of control

## NC(CCC(=O)NC(CS)C(=O)NCC(=O)O)C(=O)O (centres undefined)
dose: 75.0 mg/kg/injection, vehicle: saline
  T/C: 110 % of control
dose: 150.0 mg/kg/injection, vehicle: saline
  T/C: 100 % of control
dose: 300.0 mg/kg/injection, vehicle: saline
  T/C: 102 % of control
dose: 600.0 mg/kg/injection, vehicle: saline
  T/C: 90 % of control
dose: 1200.0 mg/kg/injection, vehicle: saline
  T/C: 90 % of control

## O=S(=O)(c1cccc(N=C=S)c1)c1cccc(N=C=S)c1
dose: 12.5 mg/kg/injection, vehicle: Klucel (hydroxypropylcellulose) (HPC)
  T/C: 99 % of control
[14]
  T/C: 94 % of control
[6]
  T/C: 103 % of control
[7]
  T/C: 99 % of control
